{
  "source": "patent US7115253B1",
  "about": "“Process for stabilizing antioxidant compounds, and aqueous compositions” (Industria E Comercio De Cosmeticos Natura Ltda., priority 1999, dated 2006)",
  "assay": "degradation kinetics of 10% LAA solution under ultraviolet radiation",
  "type": "physicochemical",
  "procedure": "Comparative tests carried out by the inventors confirm the important paper of the reducing agent in the stabilization of antioxidants as per information obtained by Wrinkler B. S. in his work cited herein. A first test was carried out in order to determine the degradation kinetics of a 10% LAA solution in water-containing medium (m/v) under ultraviolet radiation, using a ultraviolet spectrophotometer, for 60 minutes.\nA stoichiometric amount of the reducing agent of the oxidation reaction, that is, Glutathion, was added to the previous post-irradiated solution. The resultant solution was irradiated with ultraviolet radiation for further 60 minutes. By analyzing the remaining LAA, it could be noticed that 9.50% (m/v) thereof was still present. Therefore, the degradation of the LAA is dramatically minimized after the reducing agent is added.\nIn a third test, a 10% LAA solution was prepared in a water-containing medium (m/v) with a stoichiometric amount of the reducing agent Glutathion. […] However, the use of said compound in stoichiometric amounts still presents the already mentioned disadvantages.",
  "data": [
    {"molecule": "O=C1O[C@H]([C@@H](O)CO)C(O)=C1O", "note": "[LAA, levogyrous ascorbic acid]", "values": [
      {"measurement": "remaining concentration of molecular LAA", "setting": "10% LAA solution in water-containing medium, ultraviolet radiation 60 minutes, no reducing agent", "result": "about 9.58 % (m/v)"},
      {"measurement": "remaining LAA", "setting": "10% LAA solution with stoichiometric amount of Glutathion, ultraviolet radiation 60 minutes", "result": "9.98 % (m/v)"},
      {"measurement": "remaining LAA", "setting": "stoichiometric Glutathion added to the post-irradiated solution, ultraviolet radiation for further 60 minutes", "result": "9.50 % (m/v)"}
    ]}
  ]
}
